Some test systems named below: SF-268; Hs-578T; 786-0; M14; NCI/ADR-RES; TK-10; NCI-H460; IGROV-1; SK-MEL-2; SF-539; HCT-15; SK-MEL-28; EKVX; NCI-H226; HOP-62; RXF 393; OVCAR-4; SK-OV-3; HOP-92; T47D.
Test in all cases: NCI anticancer screen, dose series, 48 h

Molecules are shown by their SMILES.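 Compound exposure: 48 hours, 5 concentrations, 96-well plates. GI50 = concentration required for 50% inhibition of growth.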 The source made the active and inactive calls. No stated cut-off is given here; in the data, active = GI50 up to about 1.1 µM and inactive = higher.

In the case of `CC(=N/NC(N)=S)/C(C)=N/NC(N)=S`, the GI50 with SF-268, in the experiment with Hs-578T, in the experiment with 786-0, with M14, with NCI/ADR-RES and with TK-10 was > 100 µM (inactive) throughout. In addition, the GI50 in the experiment on NCI-H460 is > 100 µM (inactive); with IGROV-1, > 100 µM (inactive); with SK-MEL-2 it was > 100 µM (inactive); with SF-539 it was > 100 µM (inactive); in the experiment on HCT-15 it was > 100 µM; in the experiment on SK-MEL-28 it was > 100 µM (inactive). The GI50 with EKVX, with NCI-H226, in the experiment on HOP-62 and in the experiment with RXF 393 was > 100 µM (inactive) throughout.

In the case of `CCCCCCOc1ccc(C(=O)NOC)cc1`, the GI50 in the experiment on SF-268, in the experiment with Hs-578T, in the experiment on 786-0, with OVCAR-4, with M14 and in the experiment with SK-OV-3 was > 100 µM (inactive) each time. The GI50 with NCI/ADR-RES, in the experiment with TK-10, in the experiment with NCI-H460, with IGROV-1, in the experiment on SK-MEL-2 and in the experiment on SF-539 was > 100 µM (inactive) each time. Further, the GI50 was > 100 µM in the experiment with HCT-15; > 100 µM (inactive) in the experiment with SK-MEL-28; > 100 µM (inactive) with EKVX; > 100 µM (inactive) with NCI-H226; > 100 µM (inactive) in the experiment with HOP-62; > 100 µM (inactive) in the experiment with HOP-92. Further, the GI50 in the experiment with RXF 393 was > 100 µM (inactive).

For `COc1ccc(C2=NNC(=O)c3ccccc3N2c2nc(-c3cccs3)nc3cc(OC)c(OC)cc23)cc1`, the GI50 was 6.46 µM (inactive) in the experiment with SF-268; 3.85 µM (inactive) in the experiment on Hs-578T; 2.32 µM (inactive) in the experiment on 786-0; 1.8 µM (inactive) with OVCAR-4; 4.29 µM (inactive) in the experiment on M14; 17 µM (inactive) in the experiment with SK-OV-3. Besides, the GI50 is 5.55 µM (inactive) in the experiment with NCI/ADR-RES; 5.24 µM (inactive) in the experiment on TK-10; 4.43 µM (inactive) with NCI-H460; 11.1 µM (inactive) in the experiment on IGROV-1; 5.27 µM (inactive) in the experiment with SK-MEL-2; 2.79 µM (inactive) with SF-539. For the same molecule, the GI50 in the experiment on HCT-15 was 5.92 µM; in the experiment on SK-MEL-28 it was 2.39 µM (inactive); with EKVX it was 20.9 µM (inactive); in the experiment on NCI-H226, 4.56 µM (inactive); in the experiment with HOP-62, 3.13 µM (inactive); with HOP-92 it was 2.86 µM (inactive). In the experiment on T47D, the GI50 is 2.76 µM (inactive).

In the case of `CNc1ncccc1Nc1cc(=O)n2c3cccnc3n(C)c2c1`, the GI50 in the experiment on SF-268 was 51.8 µM (inactive); in the experiment with 786-0 it was > 100 µM (inactive); in the experiment on OVCAR-4, 38.9 µM (inactive); in the experiment on M14, > 100 µM (inactive); in the experiment with SK-OV-3, > 100 µM (inactive); with NCI/ADR-RES it was > 100 µM (inactive). Besides, the GI50 with TK-10 is 53.2 µM (inactive); in the experiment with NCI-H460, > 100 µM (inactive); in the experiment with IGROV-1 it was 34.1 µM (inactive); with SF-539, 73.5 µM (inactive); with HCT-15, > 100 µM; in the experiment on SK-MEL-28, > 100 µM (inactive). In addition, the GI50 with EKVX was > 100 µM (inactive); in the experiment with NCI-H226, > 100 µM (inactive); with HOP-62 it was 36.8 µM (inactive); in the experiment with T47D, > 100 µM (inactive); in the experiment on RXF 393, 20.6 µM (inactive).

On to `O=c1nc2ccc3sc4ccccc4c(=O)c3n2c(=O)[nH]1`, for which the GI50 in the experiment on SF-268 is 98.2 µM (inactive); in the experiment on Hs-578T, 19.4 µM (inactive); in the experiment with 786-0, > 100 µM (inactive); in the experiment on OVCAR-4, > 100 µM (inactive); with NCI/ADR-RES, > 100 µM (inactive); with TK-10, 66.7 µM (inactive). Moreover, the GI50 was > 100 µM (inactive) in the experiment on NCI-H460; > 100 µM (inactive) in the experiment on IGROV-1; > 100 µM (inactive) with SF-539; > 100 µM in the experiment with HCT-15; > 100 µM (inactive) in the experiment on SK-MEL-28; 11.7 µM (inactive) with EKVX. The GI50 with NCI-H226, with HOP-62 and in the experiment with RXF 393 was > 100 µM (inactive) throughout.

For the molecule `COc1ccc2nc3cc([N+](=O)[O-])ccc3c(Nc3ccc(S(=O)(=O)NC(C)=O)cc3)c2c1`, the GI50 in the experiment on SF-268 is > 100 µM (inactive); with Hs-578T it was 85.9 µM (inactive); in the experiment with 786-0, 47 µM (inactive); with OVCAR-4 it was > 100 µM (inactive); in the experiment on M14 it was > 100 µM (inactive); in the experiment on SK-OV-3, > 100 µM (inactive). Further, the GI50 in the experiment with TK-10 is 53.2 µM (inactive); in the experiment on NCI-H460 it was 40.6 µM (inactive); in the experiment with SK-MEL-2, > 100 µM (inactive); in the experiment with SF-539, > 100 µM (inactive); with HCT-15, 71.1 µM; in the experiment with SK-MEL-28 it was > 100 µM (inactive). The GI50 in the experiment with EKVX is 85.3 µM (inactive); in the experiment on NCI-H226 it was > 100 µM (inactive); in the experiment with HOP-62, > 100 µM (inactive); in the experiment with HOP-92, > 100 µM (inactive); with T47D it was > 100 µM (inactive); in the experiment with RXF 393, > 100 µM (inactive).

Turning to `CNc1nc(=O)c(C#N)c(-c2ccc(C)cc2)s1`, the GI50 with 786-0, in the experiment with OVCAR-4, in the experiment on M14, in the experiment on SK-OV-3, with NCI/ADR-RES and in the experiment with TK-10 was > 100 µM (inactive) in each case. For the same molecule, the GI50 in the experiment on NCI-H460 was > 100 µM (inactive); in the experiment with IGROV-1, > 100 µM (inactive); in the experiment with SK-MEL-2, > 100 µM (inactive); in the experiment with SF-539 it was > 100 µM (inactive); in the experiment on HCT-15 it was > 100 µM; in the experiment on SK-MEL-28, > 100 µM (inactive). Moreover, the GI50 in the experiment on EKVX is 67.6 µM (inactive); in the experiment with NCI-H226 it was > 100 µM (inactive); in the experiment with HOP-92, > 100 µM (inactive); in the experiment with T47D, > 100 µM (inactive); in the experiment on RXF 393, > 100 µM (inactive).

For `COc1ccc(C(=O)N(C(=O)N2CCN(c3ccccc3)CC2)S(=O)(=O)c2ccccc2)cc1`, the GI50 was 31.8 µM (inactive) in the experiment with SF-268; 25.1 µM (inactive) with Hs-578T; 29.9 µM (inactive) in the experiment with 786-0; 30.5 µM (inactive) in the experiment with OVCAR-4; 19.7 µM (inactive) with M14; 86.5 µM (inactive) in the experiment on SK-OV-3. The GI50 is 21.9 µM (inactive) in the experiment with NCI/ADR-RES; 38.4 µM (inactive) in the experiment with TK-10; 32.4 µM (inactive) in the experiment on NCI-H460; 18.5 µM (inactive) in the experiment with SK-MEL-2; 17.8 µM (inactive) with SF-539; 27.8 µM with HCT-15. Further, the GI50 in the experiment with SK-MEL-28 was 30.8 µM (inactive); in the experiment with EKVX, 20.7 µM (inactive); with NCI-H226, 22.2 µM (inactive); in the experiment on HOP-62, 35 µM (inactive); in the experiment with HOP-92, 25.4 µM (inactive); with T47D, 23 µM (inactive).

As for `O=CC12CCCN1CCC2`, the GI50 in the experiment with 786-0, with OVCAR-4, in the experiment with M14, with SK-OV-3, in the experiment with NCI/ADR-RES and with TK-10 was > 100 µM (inactive) in each case. The GI50 was > 100 µM (inactive) with NCI-H460; > 100 µM (inactive) with IGROV-1; > 100 µM (inactive) with SK-MEL-2; > 100 µM in the experiment on HCT-15; > 100 µM (inactive) in the experiment with SK-MEL-28; > 100 µM (inactive) in the experiment with EKVX. The GI50 in the experiment with NCI-H226 was 76.4 µM (inactive); in the experiment with HOP-62, > 100 µM (inactive); in the experiment on T47D it was > 100 µM (inactive); in the experiment with RXF 393 it was > 100 µM (inactive).

Take `COc1cc(/C=c2/c3ccccc3n3c2cc(-c2ccccc2)[n+]3C)cc(OC)c1OC`: the GI50 in the experiment with SF-268 is 6.73 µM (inactive); in the experiment on 786-0, 4.06 µM (inactive); in the experiment on OVCAR-4 it was 3.46 µM (inactive); in the experiment on M14 it was 4.95 µM (inactive); in the experiment with SK-OV-3 it was 5.92 µM (inactive); with NCI/ADR-RES, > 100 µM (inactive). For the same molecule, the GI50 was 5.33 µM (inactive) with TK-10; 4.58 µM (inactive) with NCI-H460; 6.19 µM (inactive) in the experiment with IGROV-1; 2.58 µM (inactive) with SK-MEL-2; 2.86 µM (inactive) in the experiment on SF-539; 4.39 µM in the experiment on HCT-15. Further, the GI50 is 5.78 µM (inactive) with SK-MEL-28; 5.15 µM (inactive) in the experiment on EKVX; 7.94 µM (inactive) in the experiment with NCI-H226; 5.47 µM (inactive) with HOP-62; 3.48 µM (inactive) with HOP-92; 4.06 µM (inactive) with T47D. The GI50 with RXF 393 was 2.74 µM (inactive).

On to `COc1c2c(cc3oc(=O)ccc13)OC(C)(C)C=C2` [XANTHOXYLETIN], for which the GI50 in the experiment with SF-268 is 41.9 µM (inactive); in the experiment with Hs-578T it was 29.9 µM (inactive); in the experiment on 786-0, 22.4 µM (inactive); with M14, 25.1 µM (inactive); in the experiment with SK-OV-3 it was 40.5 µM (inactive); with NCI/ADR-RES, 26 µM (inactive). The GI50 with TK-10 was 30.9 µM (inactive); in the experiment with NCI-H460 it was 24.2 µM (inactive); with IGROV-1, 27.6 µM (inactive); with SK-MEL-2 it was 23 µM (inactive); with SF-539, 36.6 µM (inactive); with HCT-15 it was 23.6 µM. In addition, the GI50 was 32.6 µM (inactive) in the experiment on SK-MEL-28; 37.9 µM (inactive) with EKVX; 41.1 µM (inactive) in the experiment on NCI-H226; 34.9 µM (inactive) with HOP-62; 7.29 µM (inactive) with HOP-92; 1.48 µM (inactive) in the experiment with T47D.

Source of the values: ChEMBL document CHEMBL1201862, “PubChem BioAssay data set” (2004).
